In US20100210602A1, “PhoU (PerF), A P[…] INVOLVED IN [sequence] FORMATION AND TOLERANCE TO MULTIPLE ANTIBIOTICS AND [sequence] AS A DRUG TARGET FOR [sequence] BACTERIA” (priority 2006, published 2010):
In brackets after ≈: the same amount, converted by molar mass. Where two headings read alike, the source gives them in different places.

Tests used:
Format in all cases: cell-based, M. tuberculosis
PhoY1 mutant [1] = system: PhoY1 mutant
PhoY2 mutant [2] = system: PhoY2 mutant
PhoY1 mutant [3] = system: PhoY1 mutant; remark: listed apart in the source
PhoY2 mutant [4] = system: PhoY2 mutant; remark: listed apart in the source
PhoY1 mutant [5] = system: PhoY1 mutant; remark: listed apart in the source
PhoY2 mutant [6] = system: PhoY2 mutant; remark: listed apart in the source

SMILES: NNC(=O)c1ccncc1 [INH, isoniazid]
- PhoY1 MIC (PhoY1 mutant [1]): 0.1 µg/mL
- PhoY2 MIC (PhoY2 mutant [2]): 0.1 µg/mL

SMILES: NC(=O)c1cnccn1 [PZA, pyrazinamide]
- PhoY1 MIC (PhoY1 mutant [1]; pH 5.6): 200 µg/mL
- PhoY2 MIC (PhoY2 mutant [2]; pH 5.6): 100 µg/mL
- MBC (PhoY1 mutant [3]; pH 5.9): 400 µg/mL (≈ 3250 µM)
- MIC (PhoY1 mutant [3]; pH 5.9): 200 µg/mL (≈ 1620 µM)
- MBC (PhoY2 mutant [4]; pH 5.9): 400 µg/mL (≈ 3250 µM)
- MIC (PhoY2 mutant [4]; pH 5.9): 100 µg/mL (≈ 812 µM)
- CFU/ml 3 day (PhoY1 mutant [5]; 200 μg/ml): 4.3 × 10^5 CFU/ml
- CFU/ml 9 day (PhoY1 mutant [5]; 200 μg/ml): 3.3 × 10^3 CFU/ml
- CFU/ml 3 day (PhoY2 mutant [6]; 200 μg/ml): 4.83 × 10^5 CFU/ml
- CFU/ml 9 day (PhoY2 mutant [6]; 200 μg/ml): <10^2 CFU/ml

SMILES: CO[C@H]1/C=C/O[C@@]2(C)Oc3c(C)c(O)c4c(O)c(c(/C=N/N5CCN(C)CC5)c(O)c4c3C2=O)NC(=O)/C(C)=C\C=C\[C@H](C)[C@H](O)[C@@H](C)[C@@H](O)[C@@H](C)[C@H](OC(C)=O)[C@@H]1C [RIF, rifampin]
- PhoY1 MIC (PhoY1 mutant [1]): 0.1 µg/mL
- PhoY2 MIC (PhoY2 mutant [2]): 0.1 µg/mL
- MBC (PhoY1 mutant [3]): 0.2 µg/mL (≈ 0.243 µM)
- MIC (PhoY1 mutant [3]): 0.05 µg/mL (≈ 0.0608 µM)
- MBC (PhoY2 mutant [4]): 0.05 µg/mL (≈ 0.0608 µM)
- MIC (PhoY2 mutant [4]): 0.025 µg/mL (≈ 0.0304 µM)
- CFU/ml 3 day (PhoY1 mutant [5]; 8 μg/ml): 4.97 × 10^5 CFU/ml
- CFU/ml 9 day (PhoY1 mutant [5]; 8 μg/ml): 3.13 × 10^4 CFU/ml
- CFU/ml 3 day (PhoY2 mutant [6]; 8 μg/ml): 2.27 × 10^5 CFU/ml
- CFU/ml 9 day (PhoY2 mutant [6]; 8 μg/ml): <10^2 CFU/ml
